Laboratory results as given in ChEMBL document CHEMBL5230154, “Chemical probe of AHL modulators on quorum sensing in Gram-Negative Bacteria and as antiproliferative agents: A review” (Eur J Med Chem, 2021).
One block for each compound: values may come before it.

Experiments:
[1] = Inhibition of quorum sensing system in Pseudomonas aeruginosa PAO1 assessed as decrease in rhlR expression at 15 uM incubated for 12 hrs by real-time fluorescent quantitative PCR analysis
[2] = Inhibition of quorum sensing system in Pseudomonas aeruginosa PAO1 assessed as inhibition of rhamnolipid production at 15 uM incubated for 12 hrs by spectrophotometric assay
[3] = Inhibition of quorum sensing system in Pseudomonas aeruginosa PAO1 assessed as decrease in pqsA expression at 15 uM incubated for 12 hrs by real-time fluorescent quantitative PCR analysis
[4] = Inhibition of quorum sensing system in Pseudomonas aeruginosa PAO1 assessed as decrease in pqsR expression at 15 uM incubated for 12 hrs by real-time fluorescent quantitative PCR analysis
[5] = Inhibition of quorum sensing system in Pseudomonas aeruginosa PAO1 assessed as decrease in lasI expression at 15 uM incubated for 12 hrs by real-time fluorescent quantitative PCR analysis
[6] = Inhibition of quorum sensing system in Pseudomonas aeruginosa PAO1 assessed as inhibition of elastase production at 15 uM incubated for 12 hrs by Congo red dye based spectrophotometric assay
[7] = Inhibition of quorum sensing system in Pseudomonas aeruginosa PAO1 assessed as inhibition of pyocyanin production at 15 uM incubated for 12 hrs by spectrophotometric assay
[8] = Inhibition of quorum sensing system in Pseudomonas aeruginosa PAO1 assessed as decrease in lasA expression at 15 uM incubated for 12 hrs by real-time fluorescent quantitative PCR analysis
Pseudomonas aeruginosa [9] = experiment: Inhibition of biofilm formation in Pseudomonas aeruginosa PAO1 incubated for 12 hrs by crystal violet staining based analysis; type: functional
[10] = target: T1, HTH-type quorum-sensing regulator RhlR (Pseudomonas aeruginosa (strain ATCC 15692 / PAO1 / 1C / PRS 101 / LMG12228), UniProt P54292); experiment: Agonist activity against RhlR in Pseudomonas aeruginosa PAO-JP2 expressing prhlI-LVAgfp using CPRG as substrate by spectrophotometric assay
T1 sequence (P54292 whole entry): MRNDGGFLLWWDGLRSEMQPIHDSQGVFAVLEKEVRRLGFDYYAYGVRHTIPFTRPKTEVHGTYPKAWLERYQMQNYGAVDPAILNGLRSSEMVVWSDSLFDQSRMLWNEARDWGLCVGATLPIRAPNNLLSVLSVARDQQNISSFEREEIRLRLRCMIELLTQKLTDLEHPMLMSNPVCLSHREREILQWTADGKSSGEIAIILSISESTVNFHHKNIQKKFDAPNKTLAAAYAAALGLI

[11] = Agonist activity against RhlR in Escherichia coli expressing JLD271/pJN105R2/pSC11-rhlI using CPRG as substrate by spectrophotometric assay
Pseudomonas aeruginosa [12] = experiment: Antagonist activity against quorum sensing system in Pseudomonas aeruginosa PAO-JP2 (plasI-LVAgfp) assessed as inhibition of 3-oxo-C12 HSL induced GFP expression at 100 uM incubated for 6 hrs in presence of 100 uM of 3-oxo-C12-D10 by fluorescence analysis; settings: filed as antagonist
Pseudomonas aeruginosa [13] = experiment: Antagonist activity against quorum sensing system in Pseudomonas aeruginosa PAO-JP2 (plasI-LVAgfp) assessed as inhibition of 3-oxo-C12 HSL induced GFP expression at 100 uM incubated for 6 hrs in presence of 10 uM of 3-oxo-C12-D10 by fluorescence analysis; settings: filed as antagonist
Pseudomonas aeruginosa [14] = experiment: Antagonist activity against quorum sensing system in Pseudomonas aeruginosa PAO-JP2 (plasI-LVAgfp) assessed as inhibition of 3-oxo-C12 HSL induced GFP expression at 100 uM incubated for 6 hrs in presence of 50 uM of 3-oxo-C12-D10 by fluorescence analysis; settings: filed as antagonist
Pseudomonas aeruginosa [15] = experiment: Antibiofilm activity against Pseudomonas aeruginosa PAO1 NCTC 10332 assessed as inhibition of biofilm formation incubated for 24 hrs by crystal violet staining based assay; type: functional, organism-based; settings: PAO1 NCTC 10332, 24 h
Serratia marcescens = experiment: Antibiofilm activity against Serratia marcescens ATCC 27117 assessed as inhibition of biofilm formation incubated for 24 hrs by crystal violet staining based assay; type: functional, organism-based; settings: ATCC 27117, 24 h
[16] = Inhibition of quorum sensing system in Pseudomonas aeruginosa MW1 assessed as inhibition of LasR expression incubated for 8 to 12 hrs in presence of 3-oxo-C12 HSL by fluorescence analysis
[17] = Inhibition of quorum sensing system in Pseudomonas aeruginosa MW1 assessed as inhibition of LasR expression at 33 uM incubated for 8 to 12 hrs in presence of 3-oxo-C12 HSL by fluorescence analysis; settings: time 8-12 hrs
Pseudomonas aeruginosa [18] = experiment: Antagonist activity against quorum sensing system in Pseudomonas aeruginosa PAO-JP2 (plasI-LVAgfp) assessed as inhibition of 3-oxo-C12 HSL induced GFP expression at 100 uM incubated for 6 hrs in presence of 1 uM of 3-oxo-C12 HSL by fluorescence analysis; settings: filed as antagonist
Pseudomonas aeruginosa [19] = experiment: Inhibition of Pseudomonas aeruginosa MH602 harboring PlasB::gfp(ASV) reporter assessed as decrease in GFP expression at 125 uM incubated for 22 hrs by fluorescence microplate reader analysis
Pseudomonas aeruginosa [20] = experiment: Inhibition of Pseudomonas aeruginosa MH602 harboring PlasB::gfp(ASV) reporter assessed as decrease in GFP expression at 250 uM incubated for 22 hrs by fluorescence microplate reader analysis
Escherichia coli [21] = experiment: Inhibition of Escherichia coli MT102 harbouring pJBA132 expressing Gfp assessed as inhibition of GFP fluorescence expression at 250 uM incubated for 15 hrs by fluorescence microplate reader analysis
[22] = Inhibition of quorum sensing system in Pseudomonas aeruginosa PA14 assessed as inhibition of pyocyanin production by UV-vis spectrophotometric assay
[23] = Inhibition of quorum sensing system in Pseudomonas aeruginosa PAO1 assessed as inhibition of pqsR expression incubated for 4 hrs by RT-PCR analysis
Pseudomonas aeruginosa [24] = experiment: Anti-motility activity against Pseudomonas aeruginosa PAO1 NCTC 10332 assessed as reduction in swimming at 50 uM and measured after 18 hr; type: functional; design: scale not given: the % may be the effect or the level left
Pseudomonas aeruginosa [25] = experiment: Anti-motility activity against Pseudomonas aeruginosa PAO1 NCTC 10332 assessed as reduction in swarming at 50 uM and measured after 16 hr by swarming assay; type: functional; design: scale not given: the % may be the effect or the level left
[26] = Antagonist activity against quorum sensing system in Pseudomonas aeruginosa PAO1 transfected with lasB-lacZ reporter gene assessed as inhibition of beta-galactosidase activity incubated for 24 hrs by elastin-Congo red assay
[27] = Cytotoxicity against human PBMC cells assessed as reduction in cell viability at 100 uM by MTT assay; type: toxicity, cell-based
Escherichia coli [28] = experiment: Inhibition of Escherichia coli MT102 harbouring pJBA132 expressing Gfp assessed as inhibition of GFP fluorescence expression at 62.5 uM incubated for 15 hrs by fluorescence microplate reader analysis
[29] = target: T2, Transcriptional activator protein LuxR (Vibrio fischeri (strain ATCC 700601 / ES114), UniProt P35327); experiment: Antagonist activity against LuxR mediated quorum sensing system in Vibrio fischeri ES114 expressing luxI assessed as decrease in luminescence intensity incubated for 4 to 8 hrs by bioluminescence analysis; design: species or system Aliivibrio fischeri
T2 sequence (P35327 whole entry): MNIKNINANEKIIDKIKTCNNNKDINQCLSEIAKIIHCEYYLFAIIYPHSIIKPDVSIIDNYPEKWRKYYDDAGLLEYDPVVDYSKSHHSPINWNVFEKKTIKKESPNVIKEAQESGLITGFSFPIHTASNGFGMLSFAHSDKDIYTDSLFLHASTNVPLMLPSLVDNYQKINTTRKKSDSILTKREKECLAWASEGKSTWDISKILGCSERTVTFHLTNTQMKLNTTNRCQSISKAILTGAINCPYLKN

Escherichia coli [30] = experiment: Inhibition of Escherichia coli MT102 harbouring pJBA132 expressing Gfp assessed as inhibition of GFP fluorescence expression at 125 uM incubated for 15 hrs by fluorescence microplate reader analysis
[31] = target: T3, Transcriptional activator protein LasR (Pseudomonas aeruginosa (strain ATCC 15692 / PAO1 / 1C / PRS 101 / LMG12228)) (UniProt P25084); experiment: Antagonist activity against LasR-mediated quorum sensing system in Pseudomonas aeruginosa PAO1 assessed as inhibition of pyocyanin production at 200 uM incubated for 13 hrs by spectrophotometric assay; settings: filed as antagonist
T3 sequence (whole entry): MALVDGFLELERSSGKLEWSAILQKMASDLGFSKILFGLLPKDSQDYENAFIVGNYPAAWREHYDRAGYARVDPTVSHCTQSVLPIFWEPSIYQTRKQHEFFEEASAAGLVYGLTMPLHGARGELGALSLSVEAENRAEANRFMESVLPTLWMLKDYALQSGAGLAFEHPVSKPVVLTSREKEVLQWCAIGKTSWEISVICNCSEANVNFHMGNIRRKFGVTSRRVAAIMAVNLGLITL

[32] = Inhibition of quorum sensing system in Pseudomonas aeruginosa PAO1 assessed as inhibition of pyocyanin production at 250 uM incubated for 17 hrs by spectrophotometric analysis
Pseudomonas aeruginosa [33] = experiment: Inhibition of quorum sensing system in Pseudomonas aeruginosa MH602 expressing PlasB::gfp assessed as inhibition of GFP fluorescence expression at 250 uM incubated for 15 hrs by fluorescence microplate reader analysis
[34] = Inhibition of quorum sensing system in Pseudomonas aeruginosa PAO1 assessed as inhibition of pyocyanin production at 32 uM incubated for 17 hrs by spectrophotometric analysis
[35] = Inhibition of quorum sensing system in Pseudomonas aeruginosa PA14 assessed as inhibition of pyocyanin production incubated for 17 hrs by spectrophotometric assay

Structure (SMILES): O=C(CC1CCC1)N[C@H]1CCOC1=O
- EC50 [10]: 1.41 µM
- EC50 [11]: 1.78 µM

Structure (SMILES): NCCCCCCCCCCCCNc1ccnc2cc(C(F)(F)F)ccc12
- IC50 (Pseudomonas aeruginosa [15]): 63 µM
- IC50 (Serratia marcescens): 63 µM

Structure (SMILES): CCCCCCCCCCCCn1nnc(CC(=O)O)n1
- IC50 [16]: 30 µM
- inhibition [17]: 50%

Structure (SMILES): CCCCCCCCCCCC(=O)NC1CCC[C@@H]1O (stereo not given in full)
- inhibition (Pseudomonas aeruginosa [18]): 70%

Structure (SMILES): C#CNC(=O)C(=O)c1cc(C)ccc1NC(=O)CCl
- inhibition (Pseudomonas aeruginosa [19]): 64.6%
- inhibition (Pseudomonas aeruginosa [20]): 36.9%

Structure (SMILES): O=C1Cn2nncc2CNC(=O)C(=O)c2ccccc2NC(=O)Cn2nncc2CNC(=O)C(=O)c2ccccc2N1
- inhibition (Escherichia coli [21]): 18.7%
- inhibition (Pseudomonas aeruginosa [20]): 74%

Structure (SMILES): O=C(CCCNc1ccc(Cl)cc1)NC1CCOC1=O (stereo not given)
- Activity [27]: 57.4%

Structure (SMILES): O=C1C(=O)N(C(=O)CCl)c2ccc([N+](=O)[O-])cc21
- inhibition (Escherichia coli [21]): 65.8%
- inhibition (Escherichia coli [28]): 48.5%
- inhibition (Escherichia coli [30]): 60.8%
- inhibition (Pseudomonas aeruginosa [20]): 57.3%

Structure (SMILES): C#CNC(=O)C(=O)c1cc(Br)ccc1NC(=O)CCl
- inhibition (Pseudomonas aeruginosa [19]): 65%
- inhibition (Pseudomonas aeruginosa [20]): 31.8%

Structure (SMILES): O=C1C(Br)=C(Br)CN1c1ccccc1
- inhibition [32]: 90%
- inhibition (Pseudomonas aeruginosa [33]): 80.7%
- inhibition [34]: 80%

More lines, main results first:

- inhibition [1]: 55.5%
- inhibition [2]: 20.8%
- inhibition [3]: 67.7%
- inhibition [4]: 47.9%
- inhibition [5]: 38.9%
- inhibition [6]: 14.3%
- inhibition [7]: 33%
- inhibition [8]: 71%
Structure (SMILES): O=C(CSC(=S)N[C@H]1CCOC1=O)NC(=O)Nc1cccc2ccccc12
- inhibition (INH) (Pseudomonas aeruginosa [9]): 35.3%

- inhibition (Pseudomonas aeruginosa [12]): 90%
- inhibition (Pseudomonas aeruginosa [13]): 60%
- inhibition (Pseudomonas aeruginosa [14]): 80%
Structure (SMILES): CCCCCCCCCC(=O)CC(=O)Nc1ccccc1O

- IC50 [22]: 25 µM
- IC50 [23]: 30 µM
Structure (SMILES): Clc1ccc2c(NCCCCCCCCNCc3cc4ccccc4s3)ccnc2c1
- Activity (Pseudomonas aeruginosa [24]): 40%
- Activity (Pseudomonas aeruginosa [25]): 40%

- IC50 [26]: 250 µM
Structure (SMILES): CCCCCCCC(=O)NC1CCCC1

- inhibition (Escherichia coli [28]): 56.5%
Structure (SMILES): C#CCNC(=O)C(=O)c1ccccc1NC(=O)CCl

- IC50 [22]: 2.5 µM
- IC50 (Pseudomonas aeruginosa [15]): 69 µM
- IC50 (Serratia marcescens): 69 µM
Structure (SMILES): NCCCCCCCCCCCCNc1ccnc2cc(Cl)ccc12

- IC50 [29]: 0.6 µM
Structure (SMILES): O=C(Cc1ccc(-c2ccccc2)cc1)N[C@H]1CCOC1=O

- inhibition [31]: 73%
Structure (SMILES): CCCCCCCCCC(=O)CC(=O)Nc1ccc(OC)cc1

- IC50 [35]: 9 µM
Structure (SMILES): O=C(CCCOc1cccc(Cl)c1)NC1CCSC1=O (stereo not given)
